Data reported in patent US20250281414A1, “HIGH DOSE ENDOXIFEN FORMULATIONS AND METHODS OF USE” (Atossa Therapeutics, Inc., priority 2022, published 2025).
Converted amounts (≈) assume the structure as drawn.

Key:
[1] = pH-dependent solubility of (Z)-endoxifen; format: physicochemical; conditions: for solubility: read-out: Solubility Z-form
Experimental: This example describes pH-dependent solubility of (Z)-endoxifen. (Z)-endoxifen was dissolved in solution under different pH conditions, and the solubility was measured. Since (Z)-endoxifen converts to the E-form under acidic conditions, the solubility of (Z)-endoxifen and (E)-endoxifen were measured independently, and a ratio of Z-form to E-form was determined.

[2] = Solubility of (Z)-endoxifen at pH 6.8 with and without Polysorbate 80; format: physicochemical
Experimental: This example describes development of a dissolution assay to measure dissolution of endoxifen formulations. Since solubility of endoxifen decreases as pH becomes less acidic, as shown in EXAMPLE 1, additional experiments were performed to improve solubility of endoxifen in the pH 6.8 buffer solution. Polysorbate 80 (PS80), a nonionic surfactant, was added in varying concentrations to improve solubility and mimic an intestinal environment. Surfactants, such as polysorbate 80, create micelles in the medium that mimic the bile acid aggregates in the small intestine. These micelles facilitate the diffusion and transport of product into the medium.

CC/C(=C(\c1ccc(O)cc1)c1ccc(OCCNC)cc1)c1ccccc1 [(Z)-endoxifen]
Z-form to E-form equilibration ([1]; pH 6.8): below the limit of detection
solubility ([1]; solution at pH 1.2, pH 1.2, simulated gastric fluid): 1050 µg/mL (≈ 2800 µM)
solubility ([1]; solution at pH 4.5, pH 4.5, aqueous buffer): 250 µg/mL (≈ 668 µM)
solubility ([1]; solution at pH 5.0, pH 5, aqueous buffer): 203 µg/mL (≈ 543 µM)
solubility ([1]; solution at pH 5.5, pH 5.5, aqueous buffer): 43.5 µg/mL (≈ 116 µM)
solubility ([1]; solution at pH 6.0, pH 6, aqueous buffer): 27.8 µg/mL (≈ 74.4 µM)
solubility ([1]; solution at pH 6.8, pH 6.8, aqueous buffer): 4.26 µg/mL (≈ 11.4 µM)
solubility ([1]; water): 0.78 µg/mL (≈ 2.09 µM)
solubility ([2]; aqueous buffer, pH 6.8 Buffer (Control), no Polysorbate 80): 8.14 µg/mL (≈ 21.8 µM)
solubility ([2]; pH 6.8 buffer with 0.5% Polysorbate 80, pH 6.8, aqueous with cosolvent or surfactant or cyclodextrin): 58.3 µg/mL (≈ 156 µM)
solubility ([2]; pH 6.8 buffer with 1.0% Polysorbate 80, pH 6.8, aqueous with cosolvent or surfactant or cyclodextrin): 62.1 µg/mL (≈ 166 µM)
